The target in the experiment is skeletal myofibrils (myosin ATPase). Kind of experiment: Skeletal Myofibril ATPase Assay. Type of experiment: biochemical. How it is done: Example 12. Skeletal Myofibril ATPase Assay
Overview: Myosin ATPase activity is assessed by using a coupled reaction system, in which ADP generated by the myosin ATPase function is coupled to the disappearance of NADH through the pyruvate kinase/lactate dehydrogenase (PK-LDH) system. ATPase activity produces ADP, which is used as a substrate for PK to produce pyruvate and regenerate ATP. The pyruvate is then used as a substrate by LDH to oxidize NADH to NAD+. The rate of the reaction is monitored through the time-dependent disappearance of NADH using absorbance at 340 nm. Inhibition of ATPase activity by the assayed compounds is indicated by a reduced rate of NADH loss, relative to vehicle-treated controls, over the experimental time window. To assess the selectivity of the assayed compounds for skeletal myofibrils, the compounds are counter-screened in cardiac myofibrils.
Materials: The following stock solutions and reagents were used in the Skeletal Myofibril ATPase Assay:
Stock Solutions of pCa buffer. Combine PIPES, CaCl2, and EGTA solutions with 70 mL of water. Adjust pH to 7.0 and bring final volume to 100 mL.
Buffer A & Buffer B. Buffers were stored on ice until use.
Skeletal Myofibril ATPase Assay Procedure: BSA, ATP, NADH, PEP, and DTT solutions were thawed at room temperature, then transferred to ice. Pellet-frozen myofibrils were transferred with approximately twice the required volume into a sufficiently large tube and capped. Myofibrils were thawed by rolling in a water bath for approximately 15 min at room temperature and cooled on ice. Buffers A and B were prepared by adjusting volumes as necessary for required number of wells and stored on ice. 0.5 μL of the compounds to be assayed were added into wells. 25 μL of Buffer A was dispensed into the wells, followed by 25 μL of Buffer B. The wells were measured for absorbance at 340 nm, using a kinetic protocol in which the wells are read every 1.5-2 min for 45 min. The slope of the data was approximated by subtracting the minimum absorbance value from the maximum value for each well. This was accomplished either in the SoftMax Pro software or in a spreadsheet program such as Excel. Using GraphPad Prism 8.0, the data was normalized by assigning a value of 100% to the 1% DMSO vehicle wells. Typically, a normalized 0% value was simply assigned to a (Max−Min) value of 0. The normalized data was fit to a Four Parameter Logistic sigmoidal equation, constraining the bottom to be 0 or greater. Compounds of Table 1, 2, and 3 were tested and results of the assay appear in Tables 4a-4c. A=IC50 is less than or equal to 10 μM; B═IC50 is greater than 10 μM and less than 100 μM; C═IC50 is greater than 100 μM.

For `CCNC(=O)Cn1nc(-c2ccc(N3CC(COC(F)(F)F)C3)nc2)ccc1=O` [Compound I-40, N-ethyl-2-(6-oxo-3-(6-(3-((trifluoromethoxy)methyl)azetidin-1-yl)pyridin-3-yl)pyridazin-1(6H)-yl)acetamide], the IC50 (Table 4A) lay within 10 to 100 µM.

On to `CCc1ccc(-c2ccc(=O)n(CC(=O)Nc3ccc4c(c3)OCCO4)n2)cc1` [IIIb-44, N-(2,3-dihydrobenzo[b][1,4]dioxin-6-yl)-2-(3-(4-ethylphenyl)-6-oxopyridazin-1(6H)-yl)acetamide], for which the IC50 (Table 4C) is more than 100 µM.

`COc1ccc(-c2ccc(=O)n(CC(=O)NCc3ccccc3Cl)n2)cc1` [IIIb-1, N-(2-chlorobenzyl)-2-(3-(4-methoxyphenyl)-6-oxopyridazin-1(6H)-yl)acetamide]: the IC50 (Table 4C) is less than 10 µM.

With `COc1ccc(-c2ccc(=O)n(CC(=O)Nc3ccc(C(C)C)cc3)n2)cc1` [IIIb-56, N-(4-isopropylphenyl)-2-(3-(4-methoxyphenyl)-6-oxopyridazin-1(6H)-yl)acetamide], the IC50 (Table 4C) is more than 100 µM.

Compound `O=C(Cn1nc(-c2ccc(OC(F)F)cc2)ccc1=O)NCc1ccccc1Cl` [II-3, N-(2-chlorobenzyl)-2-(3-(4-(difluoromethoxy)phenyl)-6-oxopyridazin-1(6H)-yl)acetamide] returned a half-maximal inhibitory concentration (IC50) (Table 4B) of less than 10 µM.

In turn, `COc1ccc(-c2ccc(=O)n(CC(=O)Nc3cccc(C)n3)n2)cc1` [IIIb-59, 2-(3-(4-methoxyphenyl)-6-oxopyridazin-1(6H)-yl)-N-(6-methylpyridin-2-yl)acetamide] returned a concentration for half-maximal inhibition (IC50) (Table 4C) of more than 100 µM.

In turn, `COc1ccc(-c2ccc(=O)n(CC(=O)NCc3ccc(C)cc3)n2)cc1` [IIIa-15, 2-(3-(4-methoxyphenyl)-6-oxopyridazin-1(6H)-yl)-N-(4-methylbenzyl) acetamide] showed an IC50 (Table 4C) of less than 10 µM.

`O=C(Cn1nc(-c2ccc(OC(F)F)nc2)ccc1=O)N[C@H]1CC12CC2` [Compound I-17, (S)-2-(3-(6-(difluoromethoxy)pyridin-3-yl)-6-oxopyridazin-1(6H)-yl)-N-(spiro[2.2]pentan-1-yl)acetamide]: for the setting “Table 4A”, the IC50 lay in the range of 10 to 100 µM.

`COc1ccc(-c2ccc(=O)n(CC(=O)NCc3cnccn3)n2)cc1` [IIIa-28, 2-(3-(4-methoxyphenyl)-6-oxopyridazin-1(6H)-yl)-N-(pyrazin-2-ylmethyl) acetamide]: where the note is “Table 4C”, the IC50 is more than 100 µM.

As for `O=C(Cn1nc(-c2ccccc2)ccc1=O)Nc1ccc2[nH]ccc2c1` [IIIc-49, N-(1H-indol-5-yl)-2-(6-oxo-3-phenylpyridazin-1(6H)-yl)acetamide], the half-inhibitory concentration (IC50) (Table 4C) is less than 10 µM.

Compound `O=C(Cn1nc(-c2ccc(NC34CC(C3)C4)nc2)ccc1=O)NC12CC(C1)C2` [Compound I-46, N-(bicyclo[1.1.1]pentan-1-yl)-2-(3-(6-(bicyclo[1.1.1]pentan-1-ylamino)pyridin-3-yl)-6-oxopyridazin-1(6H)-yl)acetamide] gave an IC50 (Table 4A) of less than 10 µM.

Turning to `CCNC(=O)Cn1nc(-c2ccc(OC(F)F)cc2)ccc1=O` [II-10, 2-(3-(4-(difluoromethoxy)phenyl)-6-oxopyridazin-1(6H)-yl)-N-ethylacetamide], for the setting “Table 4B”, the IC50 is less than 10 µM.

On to `COc1ccc(-c2ccc(=O)n(CC(=O)NCc3ccccc3Cl)n2)c(F)c1` [IIIa-13, N-(2-chlorobenzyl)-2-(3-(2-fluoro-4-methoxyphenyl)-6-oxopyridazin-1(6H)-yl)acetamide], for which the IC50 (Table 4C) is less than 10 µM.

Consider `O=C(Cn1nc(-c2ccccc2)ccc1=O)NC1(c2ccccc2)CCC1` [IIIc-51, 2-(6-oxo-3-phenylpyridazin-1(6H)-yl)-N-(1-phenylcyclobutyl)acetamide], for which the IC50 (Table 4C) was less than 10 µM.

As to `CCNC(=O)Cn1nc(-c2cnc(NC34CC(C3)C4)nc2)ccc1=O` [Compound I-59, 2-[3-(2-[bicyclo[1.1.1]pentan-1-ylamino]pyrimidin-5-yl)-6-oxopyridazin-1-yl]-N-ethylacetamide], the IC50 (Table 4A) was less than 10 µM.

`COc1ccc(-c2ccc(=O)n(CC(=O)N(C)c3ccccc3)n2)cc1` [IIIc-7, 2-(3-(4-methoxyphenyl)-6-oxopyridazin-1(6H)-yl)-N-methyl-N-phenylacetamide] had an IC50 (Table 4C) of 10 to 100 µM.

`CCNC(=O)Cn1nc(-c2ccc(OC(F)F)cc2)cc(C)c1=O` [II-21, 2-(3-(4-(difluoromethoxy)phenyl)-5-methyl-6-oxopyridazin-1(6H)-yl)-N-ethylacetamide]: the IC50 (Table 4B) was more than 100 µM.

In turn, `COc1ccc(-c2ccc(=O)n(CC(=O)NC3CC3)n2)c(F)c1` [IIIb-58, N-cyclopropyl-2-(3-(2-fluoro-4-methoxyphenyl)-6-oxopyridazin-1(6H)-yl)acetamide] gave an IC50 (Table 4C) of more than 100 µM.

The compound `COc1ccc(-c2ccc(=O)n(CC(=O)NCc3ccc(OC)c(OC)c3)n2)cc1` [IIIb-49, N-(3,4-dimethoxybenzyl)-2-(3-(4-methoxyphenyl)-6-oxopyridazin-1(6H)-yl)acetamide] showed a half-inhibitory concentration (IC50) (Table 4C) of more than 100 µM.

In the case of `O=C(Cn1nc(-c2ccc(NC3CCC3)nc2)ccc1=O)NC1CCC1` [Compound I-52, N-cyclobutyl-2-(3-(6-(cyclobutylamino)pyridin-3-yl)-6-oxopyridazin-1(6H)-yl)acetamide], the IC50 (Table 4A) was less than 10 µM.

Regarding `CC(C)c1cccc(NC(=O)Cn2nc(-c3ccc4c(c3)OCCCO4)ccc2=O)c1` [IIIb-5, 2-(3-(3,4-dihydro-2H-benzo[b][1,4]dioxepin-7-yl)-6-oxopyridazin-1(6H)-yl)-N-(3-isopropylphenyl)acetamide], the half-maximal inhibitory concentration (IC50) (Table 4C) is less than 10 µM.

`O=C(Cn1nc(-c2ccc3c(c2)OCCCO3)ccc1=O)NC1CCCCCC1` [IIIb-24, N-cycloheptyl-2-(3-(3,4-dihydro-2H-benzo[b][1,4]dioxepin-7-yl)-6-oxopyridazin-1(6H)-yl)acetamide] gave an IC50 (Table 4C) of 10 to 100 µM.

As for `CCNC(=O)Cn1nc(-c2ccc(OC3COC3)nc2)ccc1=O` [Compound I-25, N-ethyl-2-(3-(6-(oxetan-3-yloxy)pyridin-3-yl)-6-oxopyridazin-1(6H)-yl)acetamide], the IC50 (Table 4A) was more than 100 µM.

With `O=C(Cn1nc(-c2ccc(OCC(F)(F)F)nc2)ccc1=O)NC1CCC1` [Compound I-56, N-cyclobutyl-2-(6-oxo-3-(6-(2,2,2-trifluoroethoxy)pyridin-3-yl)pyridazin-1(6H)-yl)acetamide], the IC50 (Table 4A) was less than 10 µM.

Turning to `CCNC(=O)Cn1nc(-c2ccc(N3CC(C)(C)C3)nc2)ccc1=O` [Compound I-18, 2-(3-(6-(3,3-dimethylazetidin-1-yl)pyridin-3-yl)-6-oxopyridazin-1(6H)-yl)-N-ethylacetamide], the IC50 (Table 4A) was in the range of 10 to 100 µM.

As for `COc1ccc(-c2ccc(=O)n(CC(=O)Nc3cccc4[nH]ccc34)n2)cc1` [IIIb-3, N-(1H-indol-4-yl)-2-(3-(4-methoxyphenyl)-6-oxopyridazin-1(6H)-yl)acetamide], where the note is “Table 4C”, the 50% inhibitory concentration (IC50) was less than 10 µM.

For the setting “Table 4C”, `COc1ccc(-c2ccc(=O)n(CC(=O)NC3(c4ccccc4Cl)CC3)n2)cc1` [IIIa-20, N-(1-(2-chlorophenyl)cyclopropyl)-2-(3-(4-methoxyphenyl)-6-oxopyridazin-1(6H)-yl)acetamide] yielded an IC50 of 10 to 100 µM.

Take `O=C(Cn1nc(-c2ccc(OCC(F)(F)F)cc2)ccc1=O)NCc1ccc[nH]c1=O` [II-26, N-((2-oxo-1,2-dihydropyridin-3-yl)methyl)-2-(6-oxo-3-(4-(2,2,2-trifluoroethoxy)phenyl)pyridazin-1(6H)-yl)acetamide]: the IC50 (Table 4B) was 10 to 100 µM.

For the compound `COc1ccc(-c2ccc(=O)n(CC(=O)Nc3cccc4c3ccn4C)n2)cc1` [IIIb-4, 2-(3-(4-methoxyphenyl)-6-oxopyridazin-1(6H)-yl)-N-(1-methyl-1H-indol-4-yl)acetamide], the IC50 (Table 4C) is less than 10 µM.

In the case of `CCNC(=O)Cn1nc(-c2ccc(OC(C)C)nc2)ccc1=O` [Compound I-27, N-ethyl-2-(3-(6-isopropoxypyridin-3-yl)-6-oxopyridazin-1(6H)-yl)acetamide], the IC50 (Table 4A) is more than 100 µM.

Turning to `O=C(Cn1nc(-c2ccc(OC(F)F)nc2)ccc1=O)NCc1ccccc1Cl` [Compound I-69, N-(2-chlorobenzyl)-2-(3-(6-(difluoromethoxy)pyridin-3-yl)-6-oxopyridazin-1(6H)-yl)acetamide], the 50% inhibitory concentration (IC50) (Table 4A) is less than 10 µM.

`COc1ccc(-c2ccc(=O)n(CC(=O)NCc3ccon3)n2)cc1` [IIIa-26, N-(isoxazol-3-ylmethyl)-2-(3-(4-methoxyphenyl)-6-oxopyridazin-1(6H)-yl)acetamide] returned an IC50 (Table 4C) of 10 to 100 µM.

On to `O=C(Cn1nc(-c2cnc(OCC(F)(F)F)nc2)ccc1=O)NC12CC(C1)C2` [Compound I-51, N-(bicyclo[1.1.1]pentan-1-yl)-2-(6-oxo-3-(2-(2,2,2-trifluoroethoxy)pyrimidin-5-yl)pyridazin-1(6H)-yl)acetamide], for which, where the note is “Table 4A”, the IC50 is less than 10 µM.

The values are drawn from US20230293518A1 (Edgewise Therapeutics, Inc., priority 2020, published 2023).
